Assay results taken from the supplement of paper PMC11451515.

System: SEM cells
Test: cell viability relative to DMSO control; higher = less cytotoxic
Conditions: 48 h
Procedure, shortened: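 NOMO1 or SEM cells were plated at 500 cells/well and P12-Ichikawa cells at 1000 cells/well in 1536-well plates (5 μl), after each leukemia line had been adapted for at least four passages in each medium. Pin dosing delivered library compounds in DMSO at 11 threefold concentrations, 47 μM to 0.79 nM. CellTiter-Glo One luminescence was read after 48 h at 37°C. Viability is reported as a per-plate percentage of DMSO wells, with cell-free wells as background.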

[1] = HPLM + 10% dialyzed FBS, 0.000781 µM
[2] = HPLM + 10% dialyzed FBS, 0.00234 µM
[3] = HPLM + 10% dialyzed FBS, 0.00702 µM
[4] = HPLM + 10% dialyzed FBS, 0.0211 µM
[5] = HPLM + 10% dialyzed FBS, 0.0632 µM
[6] = HPLM + 10% dialyzed FBS, 0.19 µM
[7] = HPLM + 10% dialyzed FBS, 0.569 µM
[8] = HPLM + 10% dialyzed FBS, 1.71 µM
[9] = HPLM + 10% dialyzed FBS, 5.12 µM
[10] = HPLM + 10% dialyzed FBS, 15.4 µM
[11] = HPLM + 10% dialyzed FBS, 46.1 µM
[12] = RPMI 5 mM glucose + 10% FBS, 0.000781 µM
[13] = RPMI 5 mM glucose + 10% FBS, 0.00234 µM
[14] = RPMI 5 mM glucose + 10% FBS, 0.00702 µM
[15] = RPMI 5 mM glucose + 10% FBS, 0.0211 µM
[16] = RPMI 5 mM glucose + 10% FBS, 0.0632 µM
[17] = RPMI 5 mM glucose + 10% FBS, 0.19 µM
[18] = RPMI 5 mM glucose + 10% FBS, 0.569 µM
[19] = RPMI 5 mM glucose + 10% FBS, 1.71 µM
[20] = RPMI 5 mM glucose + 10% FBS, 5.12 µM
[21] = RPMI 5 mM glucose + 10% FBS, 15.4 µM
[22] = RPMI 5 mM glucose + 10% FBS, 46.1 µM
[23] = RPMI 5 mM glucose + 10% dialyzed FBS, 0.000781 µM
[24] = RPMI 5 mM glucose + 10% dialyzed FBS, 0.00234 µM
[25] = RPMI 5 mM glucose + 10% dialyzed FBS, 0.00702 µM
[26] = RPMI 5 mM glucose + 10% dialyzed FBS, 0.0211 µM
[27] = RPMI 5 mM glucose + 10% dialyzed FBS, 0.0632 µM
[28] = RPMI 5 mM glucose + 10% dialyzed FBS, 0.19 µM
[29] = RPMI 5 mM glucose + 10% dialyzed FBS, 0.569 µM
[30] = RPMI 5 mM glucose + 10% dialyzed FBS, 1.71 µM
[31] = RPMI 5 mM glucose + 10% dialyzed FBS, 5.12 µM
[32] = RPMI 5 mM glucose + 10% dialyzed FBS, 15.4 µM
[33] = RPMI 5 mM glucose + 10% dialyzed FBS, 46.1 µM

Row | SMILES | cell viability [1] [%] | cell viability [2] [%] | cell viability [3] [%] | cell viability [4] [%] | cell viability [5] [%] | cell viability [6] [%] | cell viability [7] [%] | cell viability [8] [%] | cell viability [9] [%] | cell viability [10] [%] | cell viability [11] [%] | cell viability [12] [%] | cell viability [13] [%] | cell viability [14] [%] | cell viability [15] [%] | cell viability [16] [%] | cell viability [17] [%] | cell viability [18] [%] | cell viability [19] [%] | cell viability [20] [%] | cell viability [21] [%] | cell viability [22] [%] | cell viability [23] [%] | cell viability [24] [%] | cell viability [25] [%] | cell viability [26] [%] | cell viability [27] [%] | cell viability [28] [%] | cell viability [29] [%] | cell viability [30] [%] | cell viability [31] [%] | cell viability [32] [%] | cell viability [33] [%]
1 | COc1cnc(N[S+](=O)([O-])c2ccc(N)cc2)nc1 | 75.9 | 96.2 | 85.7 | 86.1 | 93.2 | 94.6 | 91.9 | 93.1 | 109 | 102 | 103 | 94.9 | 97.4 | 99.7 | 104 | 101 | 107 | 113 | 97.3 | 107 | 102 | 105 | 75.9 | 91.6 | 106 | 104 | 93.7 | 107 | 108 | 115 | 117 | 106 | 118
2 | CC(C)C(C)/C=C/C(C)C1CCC2C3=CC=C4CC(O)CCC4(C)C3CCC21C (centres undefined) | 92.6 | 79.7 | 86.7 | 73.2 | 82 | 77.4 | 83.7 | 76.5 | 68.6 | 81.8 | 86.4 | 99.6 | 107 | 111 | 99.8 | 97.1 | 94 | 111 | 92.9 | 98.5 | 96.1 | 102 | 88 | 107 | 95.1 | 83.1 | 107 | 91.4 | 117 | 105 | 87.2 | 88.8 | 88.3
3 | Cc1c(CN2CCN(C(=O)[C@H](C)O)CC2)sc2c(N3CCOCC3)nc(-c3cnc(N)nc3)nc12 | 98 | 63.4 | 78.2 | 79 | 70.5 | 67.7 | 55.4 | 38.5 | 35.8 | 36.1 | 31.3 | 96.8 | 70 | 95.4 | 80.9 | 84.6 | 80.1 | 56.3 | 34.3 | 34.3 | 36.8 | 27.3 | 90.4 | 54.8 | 87.4 | 82.4 | 67 | 78.6 | 48.2 | 41.3 | 36.6 | 34.6 | 30.5
4 | C\C1=C\C(=O)OC2=C1C=CC(=C2)O | 120 | 114 | 126 | 119 | 118 | 119 | 128 | 77.1 | 122 | 111 | 109 | 98.1 | 118 | 108 | 104 | 118 | 110 | 118 | 87.3 | 108 | 97.1 | 92.1 | 120 | 119 | 146 | 136 | 135 | 117 | 114 | 75.2 | 117 | 117 | 115
5 | COC1CCC(CC1)N(C(=O)C2CCC(C)CC2)C3=C(SC(=C3)\C4=C\CCCC4)C(O)=O (centres undefined) | 111 | 120 | 119 | 117 | 113 | 117 | 104 | 115 | 112 | 84.9 | 72.1 | 114 | 111 | 124 | 128 | 144 | 134 | 122 | 121 | 121 | 82.2 | 73.5 | 116 | 114 | 112 | 128 | 138 | 108 | 120 | 137 | 104 | 75.3 | 68
6 | CC1(C)CCC[C@]2(C)[C@H]3CC(=O)O[C@]3(C)CC[C@@H]12 | 101 | 103 | 102 | 116 | 119 | 95.2 | 116 | 118 | 115 | 101 | 93.3 | 110 | 114 | 106 | 107 | 106 | 115 | 119 | 115 | 112 | 82.2 | 100 | 114 | 106 | 116 | 126 | 104 | 112 | 121 | 111 | 119 | 79.2 | 99.1
7 | C=CC(=O)Nc1cccc(Oc2nc(Nc3ccc(N4CCN(C)CC4)cc3)ncc2Cl)c1 | 94.3 | 112 | 109 | 116 | 128 | 111 | 104 | 83 | 22.1 | 21.6 | 22.2 | – | – | – | – | – | – | – | – | – | – | – | 108 | 107 | 125 | 124 | 128 | 111 | 103 | 71.8 | 21.1 | 15 | 10.4
8 | C=C(C)[C@@H]1CC[C@]2(C(=O)O)CC[C@]3(C)[C@H](CC[C@@H]4[C@@]5(C)CC[C@H](O)C(C)(C)[C@@H]5CC[C@]43C)[C@@H]12 | – | – | – | – | – | – | – | – | – | – | – | 115 | 116 | 134 | 129 | 140 | 52.4 | 128 | 123 | 42.7 | 112 | 107 | – | – | – | – | – | – | – | – | – | – | –
9 | COc1cccc2cc(-c3nc(C4CCC(C(=O)O)CC4)n4ncnc(N)c34)[nH]c12 (centres undefined) | 118 | 132 | 124 | 107 | 107 | 101 | 74.7 | 36.2 | 28.2 | 22.6 | 16.4 | – | – | – | – | – | – | – | – | – | – | – | 111 | 133 | 118 | 114 | 96 | 99.7 | 89.3 | 52.6 | 31.5 | 22.2 | 15.8
10 | CNC(=O)c1ccc(-c2cnc3ncc(Cc4ccc5ncccc5c4)n3n2)cc1F | 108 | 126 | 122 | 119 | 128 | 117 | 124 | 137 | 120 | 127 | 124 | 110 | 129 | 100 | 127 | 133 | 124 | 126 | 125 | 124 | 133 | 105 | 116 | 121 | 129 | 126 | 129 | 130 | 144 | 146 | 131 | 118 | 132
11 | COC1=NC(=NC(=C1N\C2=N\CCN2)Cl)C | 71.4 | 88.7 | 47.6 | 91.8 | 99.9 | 94.1 | 114 | 102 | 44.4 | 108 | 100 | 81 | 79.3 | 45 | 84 | 79.6 | 83.5 | 106 | 81.9 | 34.1 | 103 | 99.2 | 74.6 | 80 | 46.6 | 102 | 104 | 104 | 101 | 101 | 49.6 | 98.7 | 113
12 | C/C=C(/C)C(=O)O[C@H]1C(C)=C2[C@H]([C@@H]1OC(=O)CCCCCCC)[C@@](C)(OC(C)=O)C[C@H](OC(=O)CCC)[C@@]1(O)[C@H]2OC(=O)[C@@]1(C)O | 95 | 112 | 111 | 101 | 57 | 13.1 | 8.77 | 7.59 | 7.07 | 6.17 | 6.69 | 105 | 112 | 113 | 85.7 | 23.8 | 10.4 | 6.8 | 6.65 | 7.69 | 5.62 | 6.01 | 107 | 138 | 114 | 82.7 | 33.8 | 9.51 | 7.63 | 5.08 | 4.94 | 3.37 | 3.69
13 | Cn1c(=O)c2c(ncn2C)n(C)c1=O.O=C(O)CC(O)(CC(=O)O)C(=O)O | 124 | 117 | 110 | 111 | 112 | 128 | 118 | 114 | 122 | 121 | 106 | 117 | 107 | 112 | 107 | 117 | 106 | 115 | 96.1 | 103 | 110 | 89.7 | 113 | 114 | 120 | 123 | 112 | 124 | 115 | 114 | 117 | 124 | 112
14 | COC1=CC2=NC=CC(=C2C=C1)OC3=CN=C(NC(=O)C/4=C(C)/N(CC(C)(C)O)N(C4=O)C5=CC=CC=C5)C=C3 | 82.3 | 84.7 | 63.1 | 83.6 | 89.4 | 86.1 | 79.1 | 52.1 | 32.7 | 36.4 | 31 | 108 | 96.2 | 91.6 | 108 | 103 | 99 | 82 | 60.9 | 29.3 | 36 | 31 | 74.1 | 82.1 | 76.7 | 77.8 | 79.4 | 80 | 60.5 | 50.3 | 32.8 | 33.2 | 27.4
15 | Cc1cc(OCCCc2c(C(=O)O)n(Cc3cccnc3)c3c(-c4c(COc5ccc(N6CCN([S+](C)(=O)[O-])CC6)cc5)nn(C)c4C)cccc23)cc(C)c1Cl | 102 | 94.1 | 105 | 101 | 89.4 | 91.8 | 100 | 93.3 | 84.9 | 81.5 | 62.2 | 112 | 116 | 133 | 106 | 105 | 113 | 112 | 96.9 | 111 | 91.2 | 67.4 | 86.7 | 94.5 | 96.1 | 104 | 102 | 110 | 90.7 | 91.7 | 89.8 | 76.4 | 53.1
16 | O=C(NOCC(O)CO)c1cc(Br)c(F)c(F)c1Nc1ccc(I)cc1F (centres undefined) | 66.2 | 76.3 | 73 | 78.6 | 77.2 | 83 | 80.4 | 62.4 | 46.3 | 60.7 | 44.1 | 63.8 | 92 | 76.8 | 90.1 | 94.4 | 80.3 | 70.8 | 69.3 | 52.7 | 45.7 | 37 | 73.3 | 95.8 | 67.4 | 83.1 | 81.6 | 67.5 | 54.1 | 61.1 | 39 | 37.1 | 42.1
